Patent publication US10780094B2, “Use of carbonic anhydrase inhibitors for treatment of neurological and psychiatric disorders” (New York University, priority 2016, dated 2020)

What was measured:
[1] = test system: caspase 9 in SH-SY5Y neuronal cells; test: Caspase-Glo 9 activity after Aβ challenge; type: cell-based, human; conditions: for caspase 9 activation: Example 2/3, FIG. 16C, 22
Experimental: Caspase 9 and caspase 3/7 activation was measured by luminescent assays (Caspase-Glo 9 and caspase-Glo 3/7, Promega, Madison, Wis.), in cells treated with the Aβ peptides in DMEM without FBS. Briefly, 10,000 cells/well were plated in 96 wells plates and incubated for 24 hours with the freshly solubilized Aβ peptides. Caspase-Glo reagent was added to the cell cultures resulting in cell lysis, followed by caspase cleavage of the substrate and generation of a luminescent signal produced by the luciferase reaction. After 40 minutes incubation, the amount of caspase activity was evaluated in a plate-reading luminometer (Synergy HT Multi-Mode Microplate Reader, Biotek, Winooski, Vt.) as described in (Fossati et al., 2012b). To inhibit non-specific background activity, the proteasome inhibitor MG-132 was added to the Caspase-Glo reagent before the experiment as indicated by the manufacturer. In all cases results are expressed as fold-change compared to untreated control cells.
(§1) Cells were plated at a confluence of 10.000 cells per well in 96-wells microplate luminescence microtiter (ThermoFisher, Waltham, Mass., US). The day after, cells were treated with the peptides and/or drugs for the experimental times. After that, caspase-Glo 9 assay was performed, following the protocol provided from the manufacturer. Luminescence was measured using a FlexStation 3 Multi-Mode Microplate Reader (Molecular devices, Sunnyvalem Calif., US).

EC and SH-SY5Y cultures = test: Immunofluorescence deconvolution microscopy of CytC and MitoTracker (mitochondrial membrane potential); type: cell-based, human; conditions: for loss of mitochondrial membrane potential (red dye internalization): Example 3, cells treated with Aβ
Experimental: Both EC and SH-SY5Y cells were plated on to glass chamber slides (Thermo Fisher Scientific), pre-coated with either collagen-I or poly-d-lysine (for ECs and SH-SY5Y cells respectively). After seeding, cells were allowed to attach for 1 day before treatment with the different peptides for 1-3 days, as above. Cells were washed with ice-cold PBS, fixed with 4% paraformaldehyde (10 min at room temperature) and blocked for 1 h with 20 mg/ml BSA in PBST (PBS containing 0.3% Triton X-100). Slides were further incubated with mouse anti-CytC monoclonal antibody (BD Biosciences; 1:200 dilution in PBST containing 5 mg/ml BSA; 2 h at room temperature) followed by Alexa Fluor® 488-conjugated anti-(mouse IgG) antibody (Invitrogen; 1:200 in PBST with 5 mg/ml BSA; 1 h at room temperature). Fluorescence signals were visualized in a Nikon Eclipse E 800 deconvolution microscope using NIS Elements software (Nikon Instruments) for image acquisition and processing, and AutoQuant (Media Cybernetics) for 3D deconvolution. The effect of methazolamide in preventing the Aβ-induced release of CytC from the mitochondria into the cytoplasm was evaluated in EC and SH-SY5Y cultures. After peptide incubation in the presence and absence of methazolamide (Sigma), release of CytC was visualized by immunofluorescence microscopy and WB analysis, and corroborated by confocal assessment of CytC in conjunction with the mitochondrial marker MitoTracker®.

mitochondrial CA = conditions: reference (16); cited from earlier work
hCMEC/D3 cells (D3) = test: Cell Death ELISAplus, Aβ-induced apoptosis; type: cell-based, human; conditions: Example 2/3; Aβ40-Q22 challenge; FIG. 17B, 21
Experimental: (§2) 20.000 cells per well were plated on 24-wells plates. The day after, cells were treated with peptides and/or drugs, following the experimental conditions.
(§3) 20,000 cells per well were plated on 24-wells plates. The day after, cells were treated with peptides and/or drugs, following the experimental conditions.

SH-SY5Y cells [2] = test: ATP measurement (CellTiter-Glo); type: cell-based, human; conditions: drug in combination with the peptide; 3 hours
Experimental: (§4) Steady state levels of ATP were estimated using the Cell Titter-Glo, according to manufacturer's instructions. Briefly, 5×10^3 cells per well of both D3 and SHSY cells were plated on 96-wells plates. The day after, cells were treated with either 10 μM Q22 or 50 μM Ab42 peptides, respectively. Peptides were added alone or in combination with increasing concentrations of MTZ (100 and 300 μM) or AZT (30 and 300 μM). Controls were treated with either DMSO or 5 μM oligomycin. After 3 hours of treatment, the plates containing the cells were equilibrated to room temperature for 30 minutes prior to addition of the luciferin/luciferase/cell lysis mixture. Absolute luminescence from quadruplicate experiments was recorded using a SpectraMax plate reader (Molecular Devices, Sunnyvalem Calif., US).

D3 cells = test: ATP measurement (CellTiter-Glo); type: cell-based, human; conditions: co-treatment with the peptide; 3 hours
Experimental: as §4

SH-SY5Y cells [3] = test: Cell Death ELISAplus, Aβ-induced apoptosis (fragmented nucleosomes); type: cell-based, human; conditions: for apoptosis in response to Aβ: Example 2/3, Aβ42 challenge, FIG. 17A, 21
Experimental: The extent of apoptosis caused by Aβ in the presence or absence of MTZ was assessed by quantitation of nucleosome formation using Cell Death ELISA^plus (Roche Applied Science, Indianapolis, Ind.). Briefly, after incubation with the peptides, plates were centrifuged in a Beckman J-6B centrifuge (10 min; 1,000 rpm), cells lysed, and DNA-histone complexes (nucleosomes) quantitated by Cell Death ELISA, as previously described (Fossati et al., 2010).
as §2, §3

SH-SY5Y neuronal cells = test: TMRM assay of mitochondrial membrane potential (ΔΨ); type: cell-based, human; conditions: for ΔΨ after pre-aggregated Aβ: any of the used concentrations, 45 minutes
Experimental: (§5) Briefly, cells were plated on 25 mm optical borosilicate poly-L-lysine-coated sterile glass covers (ThermoFisher, Waltham, Mass., US) at a 70% confluence. The day after, cells were washed twice with HBSS and charged with 600 nM TMRM on HBSS. Cells were then incubated for 20 min in the incubator, at 37° C. and washed again with HBSS. After that, the medium was replaced by HBSS containing 150 nM of tetramethylrhodamine methyl ester (TMRM), in order to maintain the equilibrium distribution of the fluorophore. Cells were then mounted on Sykes-Moores chambers (BellCo, Vineland, N.J., US) and treated with the different drugs and/or peptides. An image was taken at minute 0 and at minute 45, after adding the drugs and/or peptides. In this experiment, the peptide was pre-aggregated as above before adding it to the cells.

[4] = test system: D3 cerebral microvascular endothelial cells; test: as above; type: cell-based, human; conditions: for ΔΨ after pre-aggregated Aβ: any of the used concentrations, 45 minutes
Experimental: as §5

caspase 9 in D3 cells = test: Caspase-Glo 9 activity after Aβ challenge; type: cell-based, human; conditions: Example 2/3; FIG. 16D, 22
Experimental: as §1

[5] = ATZ 10 μM added to the peptides
[6] = Aβ-Iowa(isoD), 1 day, methazolamide starting at 100 μM

SMILES | caspase 9 activation [1] | loss of mitochondrial membrane potential (red dye internalization) (EC and SH-SY5Y cultures) | activity on mitochondrial CA (mitochondrial CA) | apoptosis in response to Aβ (hCMEC/D3 cells (D3)) | ATP levels under Aβ challenge (SH-SY5Y cells [2]) | Q22-induced increase in steady state ATP levels (D3 cells) | apoptosis in response to Aβ (SH-SY5Y cells [3]) | loss of ΔΨ (SH-SY5Y neuronal cells; [5]) | ΔΨ after pre-aggregated Aβ (SH-SY5Y neuronal cells) | loss of ΔΨ [4, 5] | ΔΨ after pre-aggregated Aβ [4] | caspase 9 activation (caspase 9 in D3 cells) | caspase 9 over-activation ([1]; 100 or 300 μM MTZ, 10 μM Aβ42, 24 hours) | caspase 9 activity, drug alone ([1]; MTZ alone in absence of Aβ) | mitochondrial membrane potential (MitoTracker localization) (EC and SH-SY5Y cultures; [6]) | subcellular localization of CytC (EC and SH-SY5Y cultures; [6]) | DNA fragmentation after Aβ challenge (SH-SY5Y cells [3]; 100 μM MTZ, Aβ42 10 μM or Aβ40-Q22 50 μM, 1 day) | Aβ-mediated increase in fragmented nucleosomes (SH-SY5Y cells [3]; 300 μM MTZ, Aβ42 10 μM or Aβ40-Q22 50 μM, 1 day)
CC(=O)Nc1nnc(S(N)(=O)=O)s1 [ATZ, acetazolamide] | protective effect | prevented | high activity | prevented | remained unchanged | unaffected | prevented | prevent loss of ΔΨ | rescue ΔΨ to values similar to those observed under control conditions | prevent loss of ΔΨ | rescue ΔΨ to values similar to those observed under control conditions | protective effect | – | – | – | – | – | –
CC(=O)/N=c1/sc(S(N)(=O)=O)nn1C [MTZ, methazolamide] | protective effect | prevented | high activity | prevented | remained unchanged | unaffected | prevented | – | rescue ΔΨ to values similar to those observed under control conditions | – | rescue ΔΨ to values similar to those observed under control conditions | protective effect | completely inhibited | did not have any effect | restored the mitochondrial membrane potential | preserved the subcellular localization of CytC | significantly effective at reducing DNA fragmentation | completely prevented
